Experimental data as given in US20100099564A1, “HERBICIDE COMBINATION COMPRISING DIMETHOXYTRIAZINYL-SUBSTITUTED DIFLUOROMETHANESULFONYLANILIDES” (BAYER CROPSCIENCE AG, priority 2008, published 2010).

Key:
Format in all cases: in vivo
[1] = tested on: Stellaria media (STEME); test: Post-emergence action, greenhouse pot test, visual scoring: STEME; settings: 10 DAT
Method: (§1) Seeds or rhizome pieces of mono- and dicotyledonous harmful and useful plants were placed in peat pots (diameter 4 cm) filled with sandy loam and then covered with soil. The pots were kept in a greenhouse under optimum conditions. In addition, harmful plants encountered in paddy rice cultivation were cultivated in pots with a water level 2 cm above the soil surface.
(§2) About three weeks after the start of the cultivation, the test plants were treated at the 2- to 3-leaf stage. The herbicides, formulated as powder or liquid concentrates, were, either alone or in the combinations according to the invention, sprayed in various dosages on to the green parts of the plants using an application rate of 600 l of water/ha (converted). For further cultivation of the plants, the pots were then again kept under optimum conditions in a greenhouse.
(§3) The visual scoring of the herbicidal effects was carried out in intervals up to 21 days after the treatment. Scoring was carried out in percent in comparison to the untreated control plants. 0%=no herbicidal activity, 100%=complete herbicidal activity=complete kill.
(§4) The percentages from the treatments with the herbicides alone (=individual application) and with the combinations according to the invention (=mixtures) were employed to calculate interactions using the method of Colby. When the observed efficacies of the mixtures exceed the formal sum of the values of the tests with individual applications, they also exceed the expected value according to Colby, which is calculated using the formula below (cf. S. R. Colby; in Weeds 15 (1967) pp. 20 to 22):
(§5) Here: • A, B=activity of components A and B in percent at a dosage of a and b g of ai/ha (=gramm of active substance per hectare), respectively. • E=expected value in % at a dosage of a+b g of ai/ha.
(§6) The combinations according to the invention of herbicides from group (A) with herbicides from group (B) were tested on a broad spectrum of important harmful plants (weed grasses, broad-leaved weeds/Cyperaceae) and useful plants: Triticum aestivum (TRZAS), Stellaria media (STEME), Lolium multiflorum (LOLMU), Veronica persica (VERPE), Alopecurus myosuroides (ALOMY), Matricaria inodora (MATIN), Brassica napus (BRSNW), Viola tricolor (VIOTR), Avena fatua (AVEFA), Amaranthus retroflexus (AMARE), Zea mays (ZEAMX), Pharbitis purpurea (PHBPU), Setaria viridis (SETVI), Fallopia (ex Polygonum) convolvulus (POLCO), Echinochloa crusgaffi (ECHCG), Abuthilon theophrasti (ABUTH), Cyperus esculentus (CYPES), Oryza sativa (ORYSA).
(§7) Of particular interest are the results shown in the tables (Tab.) below, where the following key is used: • (1) EPPO code (former Bayer code) for the treated plant (see above) • (2) Time of scoring: DAT (days after treatment) • (3) Component A tested (identifying number) • (4) Component B tested (identifying number) • (5) Dosage component A [g of ai/ha] • (6) Dosage component B [g of ai/ha] • (7) % activity found • (8) E value (calculated according to Colby; see above) • (9) Comments: “SYNERGY” =synergistic interaction (E value<% activity found); “SAFENING”=safener action on useful plant (E value>% activity found)

[2] = tested on: Lolium multiflorum (LOLMU); test: Post-emergence action, greenhouse pot test, visual scoring: LOLMU; settings: for (7) % activity found: 21 DAT
Method: as §1, §2, §3, §4, §5, §6, §7

[3] = tested on: Veronica persica (VERPE); test: Post-emergence action, greenhouse pot test, visual scoring: VERPE
Method: as §1, §2, §3, §4, §5, §6, §7

[4] = tested on: Matricaria inodora (MATIN); test: Post-emergence action, greenhouse pot test, visual scoring: MATIN
Method: as §1, §2, §3, §4, §5

[5] = tested on: Avena fatua (AVEFA); test: Post-emergence action, greenhouse pot test, visual scoring: AVEFA; settings: 21 DAT
Method: as §1, §2, §3, §4, §5, §6, §7

[6] = tested on: Amaranthus retroflexus (AMARE); test: Post-emergence action, greenhouse pot test, visual scoring: AMARE
Method: as §1, §2, §3, §4, §5

[7] = tested on: Pharbitis purpurea (PHBPU); test: Post-emergence action, greenhouse pot test, visual scoring: PHBPU
Method: as §1, §2, §3, §4, §5, §6, §7

[8] = tested on: Fallopia (ex Polygonum) convolvulus (POLCO); test: Post-emergence action, greenhouse pot test, visual scoring: POLCO; settings: 21 DAT
Method: as §1, §2, §3, §4, §5, §6, §7

[9] = tested on: Echinochloa crusgaffi (ECHCG); test: Post-emergence action, greenhouse pot test, visual scoring: ECHCG; settings: for % activity found: 21 DAT
Method: as §1, §2, §3, §4, §5, §6, §7

[10] = tested on: Abuthilon theophrasti (ABUTH); test: Post-emergence action, greenhouse pot test, visual scoring: ABUTH
Method: as §1, §2, §3, §4, §5, §6, §7

[11] = tested on: Triticum aestivum (TRZAS); test: Post-emergence action, greenhouse pot test, visual scoring: TRZAS
Method: as §1, §2, §3, §4, §5, §6, §7

[12] = tested on: Alopecurus myosuroides (ALOMY); test: Post-emergence action, greenhouse pot test, visual scoring: ALOMY; settings: 21 DAT
Method: as §1, §2, §3, §4, §5

[13] = tested on: Viola tricolor (VIOTR); test: Post-emergence action, greenhouse pot test, visual scoring: VIOTR; settings: rate (5) 4
Method: as §1, §2, §3, §4, §5, §6, §7

[14] = tested on: Zea mays (ZEAMX); test: Post-emergence action, greenhouse pot test, visual scoring: ZEAMX
Method: as §1, §2, §3, §4, §5, §6, §7

[15] = tested on: Setaria viridis (SETVI); test: Post-emergence action, greenhouse pot test, visual scoring: SETVI; settings: 21 DAT
Method: as §1, §2, §3, §4, §5, §6, §7

[16] = tested on: Cyperus esculentus (CYPES); test: Post-emergence action, greenhouse pot test, visual scoring: CYPES
Method: as §1, §2, §3, §4, §5

[17] = tested on: Oryza sativa (ORYSA); test: Post-emergence action, greenhouse pot test, visual scoring: ORYSA
Method: as §1, §2, §3, §4, §5, §6, §7

CCSC(=O)N1CCCCCC1 [B6-7, S-ethyl hexahydro-1H-azepine-1-carbothioate]
% activity found ([1]; dose (6) 300): 0% | % activity found ([1]; dose (6) 900): 0% | % activity found ([2]; 10 DAT, dose (6) 900): 20% | % activity found ([3]; 10 DAT, dose (6) 900): 0% | % activity found ([3]; 21 DAT, dose (6) 300): 0% | % activity found ([4]; 10 DAT, dose (6) 900): 20% | % activity found ([4]; 21 DAT, dose (6) 300): 30% | % activity found ([4]; 21 DAT, dose (6) 900): 30% | % activity found ([5]; dose (6) 300): 0% | % activity found ([6]; 10 DAT, dose (6) 300): 0% | % activity found ([6]; 10 DAT, dose (6) 900): 0% | % activity found ([6]; 21 DAT, dose (6) 300): 0% | % activity found ([6]; 21 DAT, dose (6) 900): 0% | % activity found ([7]; 10 DAT, dose (6) 300): 0% | % activity found ([7]; 10 DAT, dose (6) 900): 0% | % activity found ([7]; 21 DAT, dose (6) 300): 0% | % activity found ([7]; 21 DAT, dose (6) 900): 0% | % activity found ([8]; dose (6) 300): 0% | % activity found ([8]; dose (6) 900): 0% | % activity found ([9]; dose (6) 300): 0% | % activity found ([9]; dose (6) 900): 0% | % activity found ([10]; 10 DAT, dose (6) 300): 0% | % activity found ([10]; 10 DAT, dose (6) 900): 0%

COc1nc(OC)nc(C(=O)c2cccc(F)c2N(C)S(=O)(=O)C(F)F)n1 [A-1]
(7) % activity found ([11]; 10 DAT, rate (5) 4): 0% | (7) % activity found ([11]; 10 DAT, rate (5) 12): 0% | (7) % activity found ([11]; 21 DAT, rate (5) 4): 0% | (7) % activity found ([11]; 21 DAT, rate (5) 12): 0% | % activity found ([1]; dose (5) 4): 70% | % activity found ([1]; dose (5) 12): 70% | (7) % activity found ([2]; rate (5) 4): 0% | (7) % activity found ([2]; rate (5) 12): 10% | (7) % activity found ([3]; 21 DAT, rate (5) 4): 30% | (7) % activity found ([3]; 21 DAT, rate (5) 12): 40% | (7) % activity found ([12]; rate (5) 4): 40% | (7) % activity found ([12]; rate (5) 12): 50% | % activity found ([4]; 10 DAT, A 12 g of ai/ha): 70% | (7) % activity found ([13]; 10 DAT): 20% | (7) % activity found ([13]; 21 DAT): 0% | (7) % activity found ([5]; rate (5) 4): 10% | (7) % activity found ([5]; rate (5) 12): 30% | (7) % activity found ([14]; 10 DAT, rate (5) 4): 0% | (7) % activity found ([14]; 10 DAT, rate (5) 12): 0% | (7) % activity found ([14]; 21 DAT, rate (5) 12): 0% | % activity found ([7]; 10 DAT, dose (5) 4): 60% | % activity found ([7]; 21 DAT, dose (5) 4): 60% | (7) % activity found ([7]; 21 DAT, rate (5) 12): 65% | (7) % activity found ([15]; rate (5) 4): 0% | (7) % activity found ([15]; rate (5) 12): 20% | (7) % activity found ([8]; rate (5) 4): 75% | (7) % activity found ([8]; rate (5) 12): 70% | (7) % activity found ([9]; 10 DAT, rate (5) 12): 70% | % activity found ([9]; dose (5) 4): 85% | % activity found ([10]; 21 DAT, dose (5) 4): 85% | % activity found ([10]; 21 DAT, dose (5) 12): 85% | (7) % activity found ([16]; 10 DAT, rate (5) 4): 70% | (7) % activity found ([16]; 10 DAT, rate (5) 12): 70% | (7) % activity found ([16]; 21 DAT, rate (5) 4): 80% | (7) % activity found ([16]; 21 DAT, rate (5) 12): 80% | (7) % activity found ([17]; 10 DAT, rate (5) 4): 10% | (7) % activity found ([17]; 10 DAT, rate (5) 12): 10% | (7) % activity found ([17]; 21 DAT, rate (5) 4): 0% | (7) % activity found ([17]; 21 DAT, rate (5) 12): 10%
